This note sets out measurements from US12662489B2 (Sitryx Therapeutics Limited, priority 2023, dated 2026).

Experiment [1] concerns the target T1, MTHFD1 recombinant human enzyme (Homo sapiens, UniProt P11586).
T1 sequence (P11586 2-291 limits assumed): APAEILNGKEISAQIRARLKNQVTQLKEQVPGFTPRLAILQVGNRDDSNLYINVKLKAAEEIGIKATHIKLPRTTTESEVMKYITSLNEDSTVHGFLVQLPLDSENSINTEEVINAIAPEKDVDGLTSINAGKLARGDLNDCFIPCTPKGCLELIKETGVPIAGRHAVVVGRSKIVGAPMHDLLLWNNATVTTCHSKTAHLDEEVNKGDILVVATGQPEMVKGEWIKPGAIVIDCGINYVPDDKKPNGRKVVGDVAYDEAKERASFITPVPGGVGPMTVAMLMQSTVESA
The experiment can be described thus: MTHFD1 inhibition assay (NAD(P)H-Glo luminescence). The note with it: MTHFD1 IC50, recombinant human enzyme 200 nM, NADP, band.

In experiment [2] the target is T2, MTHFD2 recombinant human enzyme (Homo sapiens, UniProt P13995).
T2 sequence (P13995 36-350): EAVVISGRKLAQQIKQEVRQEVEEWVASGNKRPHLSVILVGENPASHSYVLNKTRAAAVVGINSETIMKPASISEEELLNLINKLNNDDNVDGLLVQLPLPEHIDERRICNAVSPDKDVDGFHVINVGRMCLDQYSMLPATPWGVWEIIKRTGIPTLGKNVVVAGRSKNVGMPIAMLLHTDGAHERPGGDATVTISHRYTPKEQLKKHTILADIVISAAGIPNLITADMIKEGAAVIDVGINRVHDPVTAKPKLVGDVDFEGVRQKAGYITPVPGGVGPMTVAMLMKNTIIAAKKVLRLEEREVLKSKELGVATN
The experiment can be described thus: MTHFD2 inhibition assay (NAD(P)H-Glo luminescence). Conditions: for MTHFD1/MTHFD2 IC50 ratio: selectivity of MTHFD2 inhibition over MTHFD1, band.

A further experiment relates to human CD4+ T cells. The experiment can be described thus: Human CD4+ T-cell proliferation assay (CFSE, CD3/28 beads). Conditions: read-out: Proliferation IC50.

`COC[C@H]1CN(c2cc(C)c3c4c(c(=O)oc3c2C)CN(C(=O)c2cc(OC3CC3)c(C(=O)NS(=O)(=O)N3CC5CC5C3)cc2F)CC4)CCN1C` (stereo partly drawn) [Example 264, N-((3-azabicyclo[3.1.0]hexan-3-yl)sulfonyl)-2-cyclopropoxy-5-fluoro-4-(8-((R)-3-(methoxymethyl)-4-methylpiperazin-1-yl)-7,10-dimethyl-5-oxo-1,3,4,5-tetrahydro-2H-chromeno[3,4-c]pyridine-3-carbonyl)benzamide]: the values for the IC50 (in experiment [1]; in experiment [2]; with human CD4+ T cells) were 0.01 to 0.1 µM, 0.001 to 0.01 µM and 0.01 to 0.03 µM, respectively. In addition, in experiment [2], the “MTHFD1/MTHFD2 IC50 ratio” value is “J (>30)”.

In the case of `COC[C@H]1CN(c2cc(C)c3c4c(c(=O)oc3c2C)CN(C(=O)c2cc(OC3CCCC3)c(C(=O)NS(=O)(=O)N3CCCC3)c(C(F)(F)F)c2)CC4)CCN1C` [Example 129, (R)-2-(cyclopentyloxy)-4-(8-(3-(methoxymethyl)-4-methylpiperazin-1-yl)-7,10-dimethyl-5-oxo-1,3,4,5-tetrahydro-2H-chromeno[3,4-c]pyridine-3-carbonyl)-N-(pyrrolidin-1-ylsulfonyl)-6-(trifluoromethyl)benzamide], the IC50 was in the range of 1 to 5 µM in experiment [1], 0.01 to 0.1 µM in experiment [2] and 0.1 to 1 µM with human CD4+ T cells. For the same compound, the “MTHFD1/MTHFD2 IC50 ratio” value in experiment [2] is on record as “J (>30)”.

As to `COC[C@H]1CN(c2cc(C)c3c4c(c(=O)oc3c2C)CN(C(=O)c2cc(OC)c(C(=O)NS(=O)(=O)N3C5CCC3CC5)cc2F)CC4)CCN1C` [Example 248, (R)-N-((7-azabicyclo[2.2.1]heptan-7-yl)sulfonyl)-5-fluoro-2-methoxy-4-(8-(3-(methoxymethyl)-4-methylpiperazin-1-yl)-7,10-dimethyl-5-oxo-1,3,4,5-tetrahydro-2H-chromeno[3,4-c]pyridine-3-carbonyl)benzamide], the IC50 was in the range of 0.1 to 1 µM in experiment [1], 0.001 to 0.01 µM in experiment [2] and 0.03 to 0.1 µM with human CD4+ T cells. Also, in experiment [2], the “MTHFD1/MTHFD2 IC50 ratio” value is given as “J (>30)”.

In the case of `COC[C@H]1CN(c2cc(C)c3c4c(c(=O)oc3c2C)CN(C(=O)c2ccc(C(=O)NS(=O)(=O)N3CCCC3)c(F)c2)CC4)CCN1C` [Example 265, (R)-2-fluoro-4-(8-(3-(methoxymethyl)-4-methylpiperazin-1-yl)-7,10-dimethyl-5-oxo-1,3,4,5-tetrahydro-2H-chromeno[3,4-c]pyridine-3-carbonyl)-N-(pyrrolidin-1-ylsulfonyl)benzamide], the IC50 in experiment [1] is 0.1 to 1 µM; in experiment [2] it was 0.001 to 0.01 µM; in the experiment with human CD4+ T cells, 0.1 to 1 µM. Further, the “MTHFD1/MTHFD2 IC50 ratio” value in experiment [2] is reported as “J (>30)”.

For the compound `COC[C@H]1CN(c2ccc3c4c(c(=O)oc3c2C)CN(C(=O)c2ccc(C(=O)NS(=O)(=O)N(C)C)c(OC3CCC3)c2F)CC4)CCN1C` [Example 50, (R)-2-cyclobutoxy-N-(N,N-dimethylsulfamoyl)-3-fluoro-4-(8-(3-(methoxymethyl)-4-methylpiperazin-1-yl)-7-methyl-5-oxo-1,3,4,5-tetrahydro-2H-chromeno[3,4-c]pyridine-3-carbonyl)benzamide], the IC50 (in experiment [1]; in experiment [2]; in the experiment on human CD4+ T cells) was 0.001 to 0.01 µM in each case. In experiment [2], the “MTHFD1/MTHFD2 IC50 ratio” value is listed as “F (<3)”.

Turning to `CCOc1cc(C(=O)N2CCc3c(c(=O)oc4c(C)c(N5CCN(C)[C@@H](COC)C5)cc(C)c34)C2)c(Cl)cc1C(=O)NS(=O)(=O)N1CCCC1` [Example 330, (R)-5-chloro-2-ethoxy-4-(8-(3-(methoxymethyl)-4-methylpiperazin-1-yl)-7,10-dimethyl-5-oxo-1,3,4,5-tetrahydro-2H-chromeno[3,4-c]pyridine-3-carbonyl)-N-(pyrrolidin-1-ylsulfonyl)benzamide], the IC50 in experiment [1] lay within 0.1 to 1 µM; in experiment [2], 0.01 to 0.1 µM; in the experiment with human CD4+ T cells, 0.1 to 1 µM. Besides, the “MTHFD1/MTHFD2 IC50 ratio” value in experiment [2] was “J (>30)”.

Regarding `CCOc1cc(C(=O)N2CCc3c(c(=O)oc4c(C)c(N5CCN(C)[C@@H](COC)C5)cc(CC)c34)C2)c(F)cc1C(=O)NS(=O)(=O)N1CCCC1` [Example 244, (R)-2-ethoxy-4-(10-ethyl-8-(3-(methoxymethyl)-4-methylpiperazin-1-yl)-7-methyl-5-oxo-1,3,4,5-tetrahydro-2H-chromeno[3,4-c]pyridine-3-carbonyl)-5-fluoro-N-(pyrrolidin-1-ylsulfonyl)benzamide], the IC50 in experiment [1] was 0.1 to 1 µM; in experiment [2], 0.01 to 0.1 µM; with human CD4+ T cells, 0.1 to 1 µM. Moreover, the “MTHFD1/MTHFD2 IC50 ratio” value in experiment [2] is reported as “J (>30)”.

As for `COC[C@H]1CN(c2cc(C)c3c4c(c(=O)oc3c2C)CN(C(=O)c2ccc(C(=O)NS(=O)(=O)N3C5CCC3CC5)c(OC)c2)CC4)CCN1C` [Example 226, (R)-N-((7-azabicyclo[2.2.1]heptan-7-yl)sulfonyl)-2-methoxy-4-(8-(3-(methoxymethyl)-4-methylpiperazin-1-yl)-7,10-dimethyl-5-oxo-1,3,4,5-tetrahydro-2H-chromeno[3,4-c]pyridine-3-carbonyl)benzamide], the values for the IC50 (in experiment [1]; in experiment [2]; with human CD4+ T cells) were 0.1 to 1 µM, 0.01 to 0.1 µM and 0.03 to 0.1 µM, respectively. Also, the “MTHFD1/MTHFD2 IC50 ratio” value in experiment [2] is listed as “J (>30)”.

Regarding `COC[C@H]1CN(c2cc(C)c3c4c(c(=O)oc3c2C)CN(C(=O)c2cc(N(C)C)c(C(=O)NS(=O)(=O)N3C5CCC3COC5)cc2F)CC4)CCN1C` [Example 256, N-((3-oxa-8-azabicyclo[3.2.1]octan-8-yl)sulfonyl)-2-(dimethylamino)-5-fluoro-4-(8-((R)-3-(methoxymethyl)-4-methylpiperazin-1-yl)-7,10-dimethyl-5-oxo-1,3,4,5-tetrahydro-2H-chromeno[3,4-c]pyridine-3-carbonyl)benzamide], the IC50 in experiment [1] is 1 to 5 µM; in experiment [2] it was 0.001 to 0.01 µM; in the experiment with human CD4+ T cells, 0.01 to 0.03 µM. In addition, the “MTHFD1/MTHFD2 IC50 ratio” value in experiment [2] is on record as “J (>30)”.

With `CCOc1cc(C(=O)N2CCc3c(c(=O)oc4c(C)c(N5CCN(C)[C@@H](COC)C5)cc(C)c34)C2)c(F)cc1C(=O)NS(=O)(=O)N(C1CC1)C1CC1` [Example 216, (R)-N-(N,N-dicyclopropylsulfamoyl)-2-ethoxy-5-fluoro-4-(8-(3-(methoxymethyl)-4-methylpiperazin-1-yl)-7,10-dimethyl-5-oxo-1,3,4,5-tetrahydro-2H-chromeno[3,4-c]pyridine-3-carbonyl)benzamide], the results for the IC50 (in experiment [1]; in experiment [2]; with human CD4+ T cells) were 0.1 to 1 µM, 0.01 to 0.1 µM and 0.01 to 0.03 µM, respectively. Further, the “MTHFD1/MTHFD2 IC50 ratio” value in experiment [2] is “G (^ 3 to 9.0)”.

`COC[C@H]1CN(c2cc(C)c3c4c(c(=O)oc3c2C)CN(C(=O)c2ccc(C(=O)NS(=O)(=O)N(C)C)c(N(C)C3CCC3)c2F)CC4)CCN1C` [Example 39, (R)-2-(cyclobutyl(methyl)amino)-N-(N,N-dimethylsulfamoyl)-3-fluoro-4-(8-(3-(methoxymethyl)-4-methylpiperazin-1-yl)-7,10-dimethyl-5-oxo-1,3,4,5-tetrahydro-2H-chromeno[3,4-c]pyridine-3-carbonyl)benzamide]: the IC50 in experiment [1] was in the range of 0.01 to 0.1 µM. For the same compound, in experiment [2], the IC50 lay within 0.001 to 0.01 µM and the “MTHFD1/MTHFD2 IC50 ratio” value was “G (^ 3 to 9.0)”.

On to `CCOc1cc(C(=O)N2CCc3c(c(=O)oc4c(C)c(N5CCN(C)[C@@H](COC)C5)cc(Cl)c34)C2)c(F)cc1C(=O)NS(=O)(=O)N(C)C1CC1` [Example 298, (R)-4-(10-chloro-8-(3-(methoxymethyl)-4-methylpiperazin-1-yl)-7-methyl-5-oxo-1,3,4,5-tetrahydro-2H-chromeno[3,4-c]pyridine-3-carbonyl)-N-(N-cyclopropyl-N-methylsulfamoyl)-2-ethoxy-5-fluorobenzamide], for which the IC50 in experiment [1] lay in the range of 0.1 to 1 µM. In addition, in experiment [2], the IC50 lay in the range of 0.01 to 0.1 µM and the “MTHFD1/MTHFD2 IC50 ratio” value is reported as “G (^ 3 to 9.0)”.

`COC[C@H]1CN(c2ccc3c4c(c(=O)oc3c2C)CN(C(=O)c2ccc(C(=O)NS(=O)(=O)C3(C)CC3)c(N3C5CCC3CC5)c2)CC4)CCN1C` [Example 17, (R)-2-(7-azabicyclo[2.2.1]heptan-7-yl)-4-(8-(3-(methoxymethyl)-4-methylpiperazin-1-yl)-7-methyl-5-oxo-1,3,4,5-tetrahydro-2H-chromeno[3,4-c]pyridine-3-carbonyl)-N-((1-methylcyclopropyl)sulfonyl)benzamide]: the figures for the IC50 in experiment [1] and in experiment [2] were 0.001 to 0.01 µM and 0.01 to 0.1 µM, respectively. For the same compound, the “MTHFD1/MTHFD2 IC50 ratio” value in experiment [2] was “F (<3)”.

For the compound `COC[C@H]1CN(c2cc(C)c3c4c(c(=O)oc3c2C)CN(C(=O)c2ccc(C(=O)NS(=O)(=O)C3(C)CC3)c(N3CCC[C@H]3C)c2)CC4)CCN1C` [Example 123, 4-(8-((R)-3-(methoxymethyl)-4-methylpiperazin-1-yl)-7,10-dimethyl-5-oxo-1,3,4,5-tetrahydro-2H-chromeno[3,4-c]pyridine-3-carbonyl)-N-((1-methylcyclopropyl)sulfonyl)-2-((R)-2-methylpyrrolidin-1-yl)benzamide], in experiment [1], the IC50 lay in the range of 0.1 to 1 µM. Moreover, in experiment [2], the IC50 was 0.01 to 0.1 µM and the “MTHFD1/MTHFD2 IC50 ratio” value is “F (<3)”.
